Values quoted from earlier work as cited in patent US8772346B2, “Pharmaceutical composition” (Torrent Pharmaceuticals Limited, priority 2005, dated 2014).
Like-named read-outs stand apart in the source and are kept apart here.

Settings: HP-β-CD (10% w/v)

For `CCN(CC)C(=O)/C(C#N)=C/c1cc(O)c(O)c([N+](=O)[O-])c1` [entacapone], the “increase of aqueous solubility of entacapone by complexation with HP-β-CD” value (pH 3.0) is listed as 12 fold and the “increase of aqueous solubility of entacapone by complexation with HP-β-CD” value (pH 5.0) is listed as 85 fold.
